# From ChEMBL document CHEMBL1201862, “PubChem BioAssay data set” (2004)
#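 The compound was tested at five concentrations on cells cultured in 96-well plates, with a 48-hour exposure period. GI50: concentration for 50% inhibition of growth.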 Active and inactive are the calls of the source. Cut-off read from the data, not from the text of the source: active = GI50 up to about 1.1 µM and inactive = higher. Where a SMILES comes first, the peptide text is derived from it. Bridges are numbered along the chain shown (N, C = ends). [ ]: non-standard residue; d: D form. The star is where a group is joined. ξ: configuration not given here. ξNMePhe(4-NMe2) = CNC(Cc1ccc(N(C)C)cc1)C(=O)O; Picolinoyl(3-OH) = O=C(c1ncccc1O)*; ξPip(4-oxo) = O=C1CCNC(C(=O)O)C1; Phg = N[CH](C(=O)O)c1ccccc1; Abu = CC[CH](N)C(=O)O
# Columns and labels:
# Assay in all cases: NCI-60 cell line screen, 48 h
# SN12C = test system: SN12C
# RXF 393 = test system: RXF 393
# SF-268 = test system: SF-268
# HCT-15 = test system: HCT-15
# LOX IMVI = test system: LOX IMVI
# SF-539 = test system: SF-539
# MDA-MB-435 = test system: MDA-MB-435
# UACC-62 = test system: UACC-62
# NCI-H23 = test system: NCI-H23
# EKVX = test system: EKVX
# PC-3 = test system: PC-3
# HOP-62 = test system: HOP-62
# SK-MEL-2 = test system: SK-MEL-2
# HOP-92 = test system: HOP-92
# K562 = test system: K562
# SW-620 = test system: SW-620
# MDA-MB-231 = test system: MDA-MB-231
# SK-MEL-5 = test system: SK-MEL-5
# CCRF-CEM = test system: CCRF-CEM
# HT-29 = test system: HT-29
SMILES,GI50 (SN12C),GI50 (RXF 393),GI50 (SF-268),GI50 (HCT-15),GI50 (LOX IMVI),GI50 (SF-539),GI50 (MDA-MB-435),GI50 (UACC-62),GI50 (NCI-H23),GI50 (EKVX),GI50 (PC-3),GI50 (HOP-62),GI50 (SK-MEL-2),GI50 (HOP-92),GI50 (K562),GI50 (SW-620),GI50 (MDA-MB-231),GI50 (SK-MEL-5),GI50 (CCRF-CEM),GI50 (HT-29)
c1cc2cc(Cc3ccc4[nH]ccc4c3)ccc2[nH]1,17.4 µM (inactive),19.6 µM (inactive),20.6 µM (inactive),13.9 µM,27.8 µM (inactive),16.5 µM (inactive),16.4 µM (inactive),17.2 µM (inactive),18.6 µM (inactive),15.3 µM (inactive),13.1 µM (inactive),15.7 µM (inactive),22.4 µM (inactive),15.2 µM (inactive),10 µM (inactive),23.1 µM (inactive),16.5 µM (inactive),16.1 µM (inactive),21.9 µM (inactive),16.8 µM (inactive)
COc1ccc2c(-c3cc4ccccc4o3)cc(=O)oc2c1,68.9 µM (inactive),18 µM (inactive),25.3 µM (inactive),> 100 µM,60.7 µM (inactive),16.7 µM (inactive),> 100 µM (inactive),67.5 µM (inactive),52.1 µM (inactive),48.6 µM (inactive),73.5 µM (inactive),13.3 µM (inactive),66.5 µM (inactive),24.3 µM (inactive),> 100 µM (inactive),> 100 µM (inactive),47.8 µM (inactive),40.1 µM (inactive),> 100 µM (inactive),> 78.2 µM (inactive)
CC1=C/C(O)CC(=O)Cc2nc(co2)C(=O)N2CCC=C2C(=O)OC(C(C)C)C(C)/C=C/C(=O)NC\C=C\1.CCC1NC(=O)C(NC(=O)c2ncccc2O)C(C)OC(=O)C(c2ccccc2)NC(=O)C2CC(=O)CCN2C(=O)C(Cc2ccc(N(C)C)cc2)N(C)C(=O)C2CCCN2C1=O (stereo not given) ({Picolinoyl(3-OH)}-T[Abu]P[ξNMePhe(4-NMe2)][ξPip(4-oxo)][Phg]; ester 1-C; configuration not given here),9.35 µM (inactive),11.4 µM (inactive),24.4 µM (inactive),9.51 µM,3.87 µM (inactive),17.5 µM (inactive),12 µM (inactive),13 µM (inactive),7.05 µM (inactive),13.6 µM (inactive),8.07 µM (inactive),14.6 µM (inactive),7.21 µM (inactive),3.78 µM (inactive),4.72 µM (inactive),7.5 µM (inactive),7.55 µM (inactive),4.91 µM (inactive),1.9 µM (inactive),6.41 µM (inactive)
COc1ccc(C(=O)/C=C/c2ccc(O)c(O)c2F)c(OC)c1,3.89 µM (inactive),4.35 µM (inactive),2.99 µM (inactive),0.34 µM,5.61 µM (inactive),3.2 µM (inactive),3.58 µM (inactive),7.69 µM (inactive),2.43 µM (inactive),9.08 µM (inactive),3.14 µM (inactive),4.36 µM (inactive),3.05 µM (inactive),20 µM (inactive),2.56 µM (inactive),5.09 µM (inactive),9.82 µM (inactive),1.61 µM (inactive),0.44 µM (active),8.97 µM (inactive)
CC(C)(C)OC(=O)NC(Cc1ccc(OCc2ccccc2)cn1)C(=O)N1CCCC1 (stereo not given),77.6 µM (inactive),69.3 µM (inactive),89.1 µM (inactive),74.3 µM,72.1 µM (inactive),23.2 µM (inactive),53.7 µM (inactive),54.3 µM (inactive),45.7 µM (inactive),66.8 µM (inactive),33.4 µM (inactive),23.5 µM (inactive),> 100 µM (inactive),> 100 µM (inactive),67.8 µM (inactive),> 100 µM (inactive),80 µM (inactive),19.3 µM (inactive),44.8 µM (inactive),54 µM (inactive)
c1cc2c(cc1NC1=NCCO1)OCO2,> 100 µM (inactive),> 100 µM (inactive),> 100 µM (inactive),> 100 µM,> 100 µM (inactive),> 100 µM (inactive),50.4 µM (inactive),> 100 µM (inactive),> 100 µM (inactive),> 100 µM (inactive),> 100 µM (inactive),> 100 µM (inactive),> 100 µM (inactive),> 70.3 µM (inactive),11.9 µM (inactive),> 100 µM (inactive),> 100 µM (inactive),> 100 µM (inactive),12.9 µM (inactive),> 100 µM (inactive)
CC[C@@]1(O)C(=O)OCc2c1cc1n(c2=O)Cc2cc3c(N)cccc3nc2-1 [9-AMINOCAMPTOTHECIN],< 0.01 µM (active),0.0408 µM (active),< 0.01 µM (active),0.197 µM,< 0.01 µM (active),< 0.01 µM (active),0.118 µM (active),< 0.0102 µM (active),< 0.01 µM (active),0.34 µM (active),0.0728 µM (active),< 0.01 µM (active),0.233 µM (active),0.0356 µM (active),0.112 µM (active),0.0321 µM (active),0.272 µM (active),0.0118 µM (active),< 0.0369 µM (active),0.0632 µM (active)
COC(=O)c1ccccc1Nc1ccccc1C(=O)OC,> 100 µM (inactive),68.7 µM (inactive),54.2 µM (inactive),> 100 µM,56.1 µM (inactive),83 µM (inactive),> 100 µM (inactive),> 100 µM (inactive),> 100 µM (inactive),> 100 µM (inactive),39.5 µM (inactive),59.6 µM (inactive),> 100 µM (inactive),23.4 µM (inactive),> 100 µM (inactive),> 100 µM (inactive),65.2 µM (inactive),54.7 µM (inactive),> 100 µM (inactive),91.2 µM (inactive)
O=S(=O)(O)c1cc(O)c2c(/N=C\c3ccccc3O)cc(S(=O)(=O)O)cc2c1,> 100 µM (inactive),> 100 µM (inactive),> 100 µM (inactive),> 100 µM,> 100 µM (inactive),> 100 µM (inactive),> 100 µM (inactive),> 100 µM (inactive),> 100 µM (inactive),> 100 µM (inactive),> 100 µM (inactive),> 100 µM (inactive),> 100 µM (inactive),> 100 µM (inactive),86.5 µM (inactive),> 100 µM (inactive),> 100 µM (inactive),> 100 µM (inactive),> 100 µM (inactive),> 100 µM (inactive)
O=C(c1ccccc1)C(C(=O)c1ccccc1)c1nc2ccccc2sc1=O,6.22 µM (inactive),> 25 µM (inactive),> 25 µM (inactive),7.48 µM,9.68 µM (inactive),17.1 µM (inactive),10.4 µM (inactive),7.11 µM (inactive),16.6 µM (inactive),16.1 µM (inactive),12.9 µM (inactive),9.59 µM (inactive),13.5 µM (inactive),2.72 µM (inactive),12 µM (inactive),15.9 µM (inactive),11.6 µM (inactive),15.6 µM (inactive),6.24 µM (inactive),17 µM (inactive)
